Key:
cyt c = cyt c (Homo sapiens, UniProt P99999); test: Cyclic voltammetry of cyt c in solution
[1] = system: isolated rat kidney mitochondria; test: O2 consumption of isolated rat kidney mitochondria (Oxygraph); format: biochemical
Protocol: (§1) Fresh mitochondria were isolated from rat kidney as described previously. Electron flux was measured by O2 consumption (Oxygraph Clark electrode) as previously described using different substrates for C1 (glutamate/malate), C2 (succinate), and C3 (TMPD/ascorbate). Assays were carried out under low substrate conditions in order to avoid saturating the enzyme reactions. ATP production in isolated mitochondria was determined kinetically using the luciferase method (Biotherma) in a 96-well luminescence plate reader (Molecular Devices). The initial maximal rate for ATP synthesis was determined over the first minute.
Oxygen consumption of isolated rat kidney mitochondria was determined using the Oxygraph (FIG. 5). Rates of respiration were measured in the presence of different concentrations of SS-31 in state 2 (400 μM ADP only), state 3 (400 μM ADP and 500 μM substrates) and state 4 (substrates only). All experiments were done in triplicate with n=4-7.
(§2) SS-20 or SS-31 was added at 100 μM concentrations to isolated mitochondria in respiration buffer containing 0.5 mM succinate (complex II substrate) and 400 μM ADP. Similar increases in O2 consumption were observed when low concentrations of complex I substrates (glutamate/malate) were used (data not shown).
SS-20 or SS-31 was added at 10 μM or 100 μM concentrations to isolated mitochondria in respiration buffer containing glutamate/malate (complex I substrate), 0.5 mM succinate (complex II substrate) or 3 μM TMPD/1 mM ascorbate (direct reductant of cyt C). 400 μM ADP was added to initiate State 3 respiration.

[2] = system: cyt c-depleted mitoplasts; test: Respiration in cytochrome c-depleted mitoplasts; format: biochemical, rat
Protocol: Rates of respiration were measured in the presence of 500 μM Succinate with or without 100 μM SS-31. The experiment was carried out in triplicate, with n=3.
A model of cyt C tightly bound to mitochondrial cardiolipin was used to investigate interaction of SS-31 with cytochrome c-CL complex in mitochondria. After removal of outer membrane with digitonin, mitoplasts were washed with 120 mM KCl to remove all free and electrostatically associated cytochrome c, leaving only cytochrome c tightly bound to CL.

cytochrome c = cytochrome c (Homo sapiens, UniProt P99999); test: Cytochrome c reduction monitored by absorption spectroscopy (glutathione or NAC as reducing agent); format: biochemical
Protocol: Cytochrome c reduction: increasing amounts of aromatic-cationic peptides were added to a solution of oxidized cyt c. The formation of reduced cyt c was monitored by absorbance at […]. The rate of cyt c reduction was determined by non-linear analysis (Prizm software).
Time-resolved UV-Visible absorption spectroscopy was used to study the electron transport process of cyt c in the presence of peptides. Reduced cyt c was monitored by absorbance at a broad-band spectral range (200-1100 nm). The absorption changes were recorded with a UV/Visible spectrophotometer (Ultrospec 3300 pro, GE) in quartz cells with path lengths of 1 or 2 mm. N-acetylcysteine (NAC) and glutathione were used as electron donors to reduce oxidized cyt c. The rate constant of cyt c reduction was estimated by adding various concentrations of peptides. The dose dependence of the peptides was correlated to the cyt c reduction kinetics.
Absorption spectroscopy (UltroSpec 3300 Pro; 220-1100 nm) was used to determine if SS-31 modulates cyt c reduction (FIG. 1). Reduction of cyt c with glutathione is associated with multiple shifts in the Q band (450-650 nm), with a prominent shift at 550 nm.
Reduction of cyt c was monitored by increase in absorbance at 550 nm. […] Similar results were obtained using N-acetylcysteine (NAC) as a reducing agent (not shown).

isolated mitochondria = test: ATP synthesis in isolated mitochondria; format: biochemical, rat
Protocol: as §1
The rate of mitochondrial ATP synthesis was determined by measuring ATP in respiration buffer collected from isolated mitochondria 1 min after addition of […] (FIG. 6). ATP was assayed by HPLC. All experiments were carried out in triplicate, with n=3.
as §2
Increase in electron flux in the electron transport chain can either result in increase in ATP synthesis or increase in electron leak and generation of free radicals. ATP synthesis in isolated mitochondria was assayed by HPLC.

cytochrome c-CL complex = cytochrome c-CL complex (Homo sapiens, UniProt P99999); test: Cytochrome c/CL peroxidase activity (amplex red); format: biochemical
Text: The six coordination of the heme in cytochrome c prevents direct interaction of H2O2 with the catalytic metal site, and native cytochrome c in solution is a poor peroxidase. Upon interaction with CL, cytochrome c undergoes a structural change with rupture of the Fe-Met80 coordination. […] The mechanism of action of cytochrome c peroxidase is similar to that of other peroxidases, such as horse radish peroxidase (HRP). Thus it is possible to use the amplex red-HRP reaction to investigate cytochrome c peroxidase activity. In the presence of peroxidase, amplex red (AR) reacts with H2O2 to form the red-fluorescent oxidation product, resorufin (Ex/Em=571/585).
Cytochrome c (2 μM) was mixed with CL (25 μg/ml) and 10 μM H2O2 in 20 mM HEPES, pH 7.4. Amplex red (50 μM) was then added and fluorescence emission monitored in real time using Hitachi F4500 fluorescence spectrophotometer. Addition of amplex red elicited rapid increase in fluorescence signal due to resorufin formation, providing direct evidence for peroxidase activity of cytochrome c/CL complex (FIG. 29A).

cytochrome c (with CL) = cytochrome c (with CL) (Homo sapiens, UniProt P99999); test: Cytochrome c reduction inhibited by CL; format: biochemical
Protocol: Cytochrome c is a carrier of electrons between respiratory complex III and IV in mitochondria. Cytochrome c is reduced (Fe^2+) after it accepts an electron from cytochrome c reductase, and it is then oxidized to Fe^3+ by cytochrome c oxidase.
Reduction of cytochrome c (20 μM) was induced by the addition of glutathione (500 μM) in the absence or presence of CL (100 μg/ml) (FIG. 25A). Reduction of cytochrome c was monitored by absorbance at 550 nm using a 96-well UV-VIS plate reader (Molecular Devices). Addition of CL decreased the rate of cytochrome c reduction by half.

Chain of cyt c (P99999 2-105 limits assumed, species assumed): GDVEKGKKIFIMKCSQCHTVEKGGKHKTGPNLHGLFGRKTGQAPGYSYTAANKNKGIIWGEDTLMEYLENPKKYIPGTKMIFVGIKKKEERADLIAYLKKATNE
Chain of cytochrome c (P99999 2-105 limits assumed, species assumed): as above
Chain of cytochrome c-CL complex (P99999 2-105 limits assumed, species assumed, one chain of several): as the sequence (P99999 2-105 limits assumed, species assumed) above
Chain of cytochrome c (with CL) (P99999 2-105 limits assumed, species assumed): as above

Question: For D-Arg-2′6′Dmt-Lys-Phe-NH2 [SS-31], which “current for reduction and oxidation processes of cyt c” value (cyt c; Au working electrode, Ag/AgCl reference, FIG. 2 upper panel) is on record?
Answer: increased current for both reduction and oxidation processes

Question: And the “reduction/oxidation potentials of cyt c” value (cyt c; FIG. 2 upper panel)?
Answer: does not alter reduction/oxidation potentials

Question: What about the “increase of current (electron diffusion rate)” value (cyt c; cyt c:SS31=1:2, TBE buffer, FIG. 2 lower panel) of the same substance?
Answer: ~200%

Question: What about the “O2 consumption in state 3 respiration” value ([1]; glutamate/malate, succinate or TMPD/ascorbate, 400 μM ADP, FIG. 26) of the same substance?
Answer: increased O2 consumption in state 3 respiration

Question: What about the “electron flux, as measured by O2 consumption” value ([1]; peptide 10 μM or 100 μM, complex I, complex II substrate or TMPD/ascorbate, FIG. 26) of the same substance?
Answer: can promote electron flux

Question: And the “electron flux, as measured by O2 consumption” value ([1]; peptide 100 μM, 0.5 mM succinate, 400 μM ADP, FIG. 14)?
Answer: can promote electron flux

Question: And the “electron transfer to oxygen (rates of respiration)” value ([1]; state 2, state 3 and state 4, different concentrations, FIG. 5)?
Answer: promoted electron transfer to oxygen without uncoupling mitochondria

Question: And the “mitochondrial O2 consumption (respiration)” value ([2]; 500 μM succinate, 100 μM peptide, once-frozen rat kidney mitochondria, FIG. 7)?
Answer: Enhances Respiration in Cytochrome C-Depleted Mitoplasts

Question: And the “complex II respiration in mitoplasts” value ([2]; cytochrome c tightly bound to CL, digitonin, 120 mM KCl wash, dose-dependent, FIG. 28)?
Answer: enhances complex II respiration

Question: What about the “rate of NAC-induced cyt c reduction” value (cytochrome c; N-acetylcysteine as reducing agent) of the same substance?
Answer: dose-dependently increased the rate of NAC-induced cyt c reduction

Question: What about the “kinetics of cyt c reduction induced by glutathione (GSH)” value (cytochrome c; absorbance at 550 nm, FIG. 13) of the same substance?
Answer: can accelerate the kinetics of cyt c reduction

Question: What about the “cyt c reduction by peptide alone” value (cytochrome c; peptide alone at 100 μM) of the same substance?
Answer: did not reduce cyt c

Question: And the “spectral weight shift at 550 nm of cyt c” value (cytochrome c; reduction of cyt c with glutathione, FIG. 1A)?
Answer: significant spectral weight shift at 550 nm

Question: What about the “rate of cyt c reduction” value (cytochrome c; time-dependent spectroscopy, FIG. 1B) of the same substance?
Answer: increased the rate of cyt c reduction

Question: And the “rate of mitochondrial ATP synthesis” value (isolated mitochondria; ATP by HPLC 1 min after addition of 400 mM ADP, FIG. 6)?
Answer: dose-dependently increased the rate of ATP synthesis

Question: And the ATP synthesis (isolated mitochondria; assayed by HPLC, FIG. 27)?
Answer: dose-dependently increased ATP synthesis

Question: What about the “rate of ATP production” value (isolated mitochondria; mitochondria energized with low concentrations of succinate, FIG. 15) of the same substance?
Answer: significant increase in the rate of ATP production

Question: And the “kinetics of cytochrome c peroxidase activity” value (cytochrome c-CL complex; FIG. 29B)?
Answer: dose-dependently reduced the kinetics of cytochrome c peroxidase activity

Question: And the “rate of amplex red peroxidation” value (cytochrome c-CL complex; cytochrome c 2 μM, CL 25 μg/ml, 10 μM H2O2, amplex red 50 μM, FIG. 29A)?
Answer: decreased the rate of amplex red peroxidation

Question: And the “peroxidase activity in cytochrome c/CL complex” value (cytochrome c-CL complex; figure legend FIG. 29A-C, comparison at a fixed concentration of 10 μM (FIG. 29C))?
Answer: preventing peroxidase activity in cytochrome c/CL complex

Question: And the “inhibitory effect of CL on kinetics of cytochrome c reduction” value (cytochrome c (with CL); 500 μM GSH or 50 μM ascorbate, FIG. 25B)?
Answer: dose-dependently overcame the inhibitory effect of CL

Question: What about the “inhibitory action of CL on rate of cytochrome c reduction” value (cytochrome c (with CL); cytochrome c 20 μM, glutathione 500 μM, CL 100 μg/ml, peptide 20, 40 or 100 μM, FIG. 25A) of the same substance?
Answer: dose-dependently prevented the inhibitory action of CL
